From ChEMBL document CHEMBL2073858, “Cloning and characterization of a pH-sensing regulatory factor that modulates transport activity of the human H+/peptide cotransporter, PEPT1” (Biochem Biophys Res Commun, 1997)
Square brackets hold non-standard residues; d marks the D form. Peptide text beside a SMILES is read from it. Sar = CNCC(=O)O

Biological target: T1, Solute carrier family 15 member 1 (Homo sapiens) (UniProt P46059)
T1 sequence (whole entry): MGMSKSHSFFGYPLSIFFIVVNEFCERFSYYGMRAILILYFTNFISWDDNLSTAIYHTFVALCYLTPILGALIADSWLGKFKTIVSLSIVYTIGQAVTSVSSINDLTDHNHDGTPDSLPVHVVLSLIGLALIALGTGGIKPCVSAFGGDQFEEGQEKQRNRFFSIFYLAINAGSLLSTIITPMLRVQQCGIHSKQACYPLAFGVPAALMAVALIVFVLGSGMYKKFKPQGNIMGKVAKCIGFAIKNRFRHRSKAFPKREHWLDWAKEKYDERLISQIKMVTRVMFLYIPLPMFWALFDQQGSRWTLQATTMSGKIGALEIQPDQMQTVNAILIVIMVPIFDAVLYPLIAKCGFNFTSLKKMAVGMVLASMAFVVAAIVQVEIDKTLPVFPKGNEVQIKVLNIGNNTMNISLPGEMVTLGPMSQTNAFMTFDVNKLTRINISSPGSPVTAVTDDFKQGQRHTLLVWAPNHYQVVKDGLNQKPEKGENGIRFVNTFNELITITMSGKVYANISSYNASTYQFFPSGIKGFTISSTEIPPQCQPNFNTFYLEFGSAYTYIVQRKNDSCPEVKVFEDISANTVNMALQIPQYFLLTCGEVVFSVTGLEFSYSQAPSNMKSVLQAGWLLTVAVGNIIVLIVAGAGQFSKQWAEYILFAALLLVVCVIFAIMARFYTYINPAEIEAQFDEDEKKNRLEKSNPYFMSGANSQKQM
Test: TP_TRANSPORTER: uptake in Xenopus laevis oocytes
Assay type: functional, cell-based
Settings: Oocyte

- Activity: substrate [+]
SMILES: CN(CC(=O)O)C(=O)CN (H-Gly-[Sar]-OH)
